Legend:
RPMI-8226 = experiment: cells; details: Homo sapiens
DLD-1 = experiment: cells; details: Homo sapiens
KM20L2 = experiment: cells; details: Homo sapiens
786-0 = experiment: cells; details: Homo sapiens
Human tumor cell lines = experiment: NCI in vitro screen, overall result; details: Tables I and II
CCRF-CEM = experiment: NCI in vitro screen, SRB percent growth, Leukemia
M14 = experiment: NCI in vitro screen, SRB percent growth, Melanoma
SK-MEL-2 = experiment: NCI in vitro screen, SRB percent growth, Melanoma
SK-MEL-5 = experiment: NCI in vitro screen, SRB percent growth, Melanoma
SNB-19 = experiment: NCI in vitro screen, SRB percent growth, CNS Cancer
SNB-78 = experiment: as above
COLO 205 = experiment: NCI in vitro screen, SRB percent growth, Colon Cancer
HCT-116 = experiment: as above
HT29 = experiment: as above
RXF-631 = experiment: NCI in vitro screen, SRB percent growth, Renal Cancer
UO-31 = experiment: as above
OVCAR-8 = experiment: NCI in vitro screen, SRB percent growth, Ovarian Cancer
CNS cancer cell lines = experiment: NCI in vitro screen, overall result on CNS cancer cell lines; details: Tables I and II
[1] = RPMI-8226, read-out: Percent Growth
[2] = DLD-1, read-out: Percent Growth
[3] = KM-20L2, read-out: Percent Growth
[4] = 786-0, read-out: Percent Growth
[5] = Log10 Concentration -4.0, 100 µM
[6] = Log10 Concentration -7.0, 0.1 µM

SMILES: Cc1ccc2[nH]c3c(C)c4c(c(C)c3c2c1)CN(C)C=C4 [Formula XI]
- GI50 (RPMI-8226; RPMI-8226): 6.81 µM
- CC50 (RPMI-8226; RPMI-8226, read-out: LC-50): > 100 µM
- activity at 0.01 µM (RPMI-8226; [1]): 109%
- activity at 0.1 µM (RPMI-8226; [1]): 106%
- activity at 1 µM (RPMI-8226; [1]): 103%
- activity at 10 µM (RPMI-8226; [1]): 39%
- activity at 100 µM (RPMI-8226; [1]): -27%
- IC (TGI) (RPMI-8226; RPMI-8226, read-out: TGI): 39.3 µM
- GI50 (DLD-1; DLD-1): 1.48 µM
- CC50 (DLD-1; DLD-1, read-out: LC-50): 59 µM
- activity at 0.01 µM (DLD-1; [2]): 102%
- activity at 0.1 µM (DLD-1; [2]): 93%
- activity at 1 µM (DLD-1; [2]): 58%
- activity at 10 µM (DLD-1; [2]): 13%
- activity at 100 µM (DLD-1; [2]): -69%
- IC (TGI) (DLD-1; DLD-1, read-out: TGI): 14.5 µM
- GI50 (KM20L2; KM-20L2): 2.22 µM
- CC50 (KM20L2; KM-20L2, read-out: LC-50): 38 µM
- activity at 0.01 µM (KM20L2; [3]): 106%
- activity at 0.1 µM (KM20L2; [3]): 95%
- activity at 1 µM (KM20L2; [3]): 73%
- activity at 10 µM (KM20L2; [3]): 7%
- activity at 100 µM (KM20L2; [3]): -91%
- IC (TGI) (KM20L2; KM-20L2, read-out: TGI): 11.7 µM
- GI50 (786-0; 786-0): 0.523 µM
- CC50 (786-0; 786-0, read-out: LC-50): 37.3 µM
- activity at 0.01 µM (786-0; [4]): 102%
- activity at 0.1 µM (786-0; [4]): 96%
- activity at 1 µM (786-0; [4]): 32%
- activity at 10 µM (786-0; [4]): 3%
- activity at 100 µM (786-0; [4]): -90%
- IC (TGI) (786-0; 786-0, read-out: TGI): 10.7 µM
- effect against many kinds of cancer (Human tumor cell lines): effective against many kinds of cancer
- Percent Growth (CCRF-CEM; [5]): -35%
- Percent Growth (CCRF-CEM; Log10 Concentration -5.0): 13%
- Percent Growth (CCRF-CEM; Log10 Concentration -6.0, 1 µM): 74%
- Percent Growth (CCRF-CEM; [6]): 94%
- Percent Growth (CCRF-CEM; Log10 Concentration -8.0): 102%
- TGI (CCRF-CEM; PG=0): 18 µM
- GI50 (CCRF-CEM; PG=+50): 2.48 µM
- CC50 (CCRF-CEM; read-out: LC-50, PG=-50): > 100 µM
- Percent Growth (M14; [5]): -93%
- Percent Growth (M14; Log10 Concentration -5.0): 6%
- Percent Growth (M14; Log10 Concentration -6.0, 1 µM): 103%
- Percent Growth (M14; [6]): 94%
- Percent Growth (M14; Log10 Concentration -8.0): 106%
- TGI (M14; PG=0): 11.4 µM
- GI50 (M14; PG=+50): 3.52 µM
- CC50 (M14; read-out: LC-50, PG=-50): 36.8 µM
- Percent Growth (SK-MEL-2; [5]): -94%
- Percent Growth (SK-MEL-2; Log10 Concentration -5.0): -92%
- Percent Growth (SK-MEL-2; Log10 Concentration -6.0, 1 µM): 94%
- Percent Growth (SK-MEL-2; [6]): 103%
- Percent Growth (SK-MEL-2; Log10 Concentration -8.0): 98%
- TGI (SK-MEL-2; PG=0): 3.2 µM
- GI50 (SK-MEL-2; PG=+50): 1.72 µM
- CC50 (SK-MEL-2; read-out: LC-50, PG=-50): 5.96 µM
- Percent Growth (SK-MEL-5; [5]): -90%
- Percent Growth (SK-MEL-5; Log10 Concentration -5.0): -79%
- Percent Growth (SK-MEL-5; Log10 Concentration -6.0, 1 µM): 77%
- Percent Growth (SK-MEL-5; [6]): 94%
- Percent Growth (SK-MEL-5; Log10 Concentration -8.0): 92%
- TGI (SK-MEL-5; PG=0): 3.11 µM
- GI50 (SK-MEL-5; PG=+50): 1.49 µM
- CC50 (SK-MEL-5; read-out: LC-50, PG=-50): 6.49 µM
- Percent Growth (SNB-19; [5]): -57%
- Percent Growth (SNB-19; Log10 Concentration -5.0): -51%
- Percent Growth (SNB-19; Log10 Concentration -6.0, 1 µM): 48%
- Percent Growth (SNB-19; [6]): 97%
- Percent Growth (SNB-19; Log10 Concentration -8.0): 104%
- TGI (SNB-19; PG=0): 3.04 µM
- GI50 (SNB-19; PG=+50): 0.897 µM
- CC50 (SNB-19; read-out: LC-50, PG=-50): 9.78 µM
- Percent Growth (SNB-78; [5]): -75%
- Percent Growth (SNB-78; Log10 Concentration -5.0): -33%
- Percent Growth (SNB-78; Log10 Concentration -6.0, 1 µM): 38%
- Percent Growth (SNB-78; [6]): 128%
- Percent Growth (SNB-78; Log10 Concentration -8.0): 131%
- TGI (SNB-78; PG=0): 3.41 µM
- GI50 (SNB-78; PG=+50): 0.738 µM
- CC50 (SNB-78; read-out: LC-50, PG=-50): 25.2 µM
- Percent Growth (COLO 205; [5]): -28%
- Percent Growth (COLO 205; Log10 Concentration -5.0): -23%
- Percent Growth (COLO 205; Log10 Concentration -6.0, 1 µM): 24%
- Percent Growth (COLO 205; [6]): 92%
- Percent Growth (COLO 205; Log10 Concentration -8.0): 119%
- TGI (COLO 205; PG=0): 3.2 µM
- GI50 (COLO 205; PG=+50): 0.416 µM
- CC50 (COLO 205; read-out: LC-50, PG=-50): > 100 µM
- Percent Growth (HCT-116; [5]): -81%
- Percent Growth (HCT-116; Log10 Concentration -5.0): 3%
- Percent Growth (HCT-116; Log10 Concentration -6.0, 1 µM): 83%
- Percent Growth (HCT-116; [6]): 103%
- Percent Growth (HCT-116; Log10 Concentration -8.0): 113%
- TGI (HCT-116; PG=0): 10.9 µM
- GI50 (HCT-116; PG=+50): 2.58 µM
- CC50 (HCT-116; read-out: LC-50, PG=-50): 42.8 µM
- Percent Growth (HT29; [5]): -93%
- Percent Growth (HT29; Log10 Concentration -5.0): 4%
- Percent Growth (HT29; Log10 Concentration -6.0, 1 µM): 82%
- Percent Growth (HT29; [6]): 95%
- Percent Growth (HT29; Log10 Concentration -8.0): 99%
- TGI (HT29; PG=0): 11.1 µM
- GI50 (HT29; PG=+50): 2.57 µM
- CC50 (HT29; read-out: LC-50, PG=-50): 36 µM
- Percent Growth (RXF-631; [5]): -78%
- Percent Growth (RXF-631; Log10 Concentration -5.0): -8%
- Percent Growth (RXF-631; Log10 Concentration -6.0, 1 µM): 30%
- Percent Growth (RXF-631; [6]): 74%
- Percent Growth (RXF-631; Log10 Concentration -8.0): 95%
- TGI (RXF-631; PG=0): 6.25 µM
- GI50 (RXF-631; PG=+50): 0.352 µM
- CC50 (RXF-631; read-out: LC-50, PG=-50): 39.5 µM
- Percent Growth (UO-31; [5]): -94%
- Percent Growth (UO-31; Log10 Concentration -5.0): 36%
- Percent Growth (UO-31; Log10 Concentration -6.0, 1 µM): 72%
- Percent Growth (UO-31; [6]): 76%
- Percent Growth (UO-31; Log10 Concentration -8.0): 103%
- TGI (UO-31; PG=0): 18.8 µM
- GI50 (UO-31; PG=+50): 3.99 µM
- CC50 (UO-31; read-out: LC-50, PG=-50): 45.7 µM
- Percent Growth (OVCAR-8; [5]): -95%
- Percent Growth (OVCAR-8; Log10 Concentration -5.0): -5%
- Percent Growth (OVCAR-8; Log10 Concentration -6.0, 1 µM): 37%
- Percent Growth (OVCAR-8; [6]): 81%
- Percent Growth (OVCAR-8; Log10 Concentration -8.0): 89%
- TGI (OVCAR-8; PG=0): 7.69 µM
- GI50 (OVCAR-8; PG=+50): 0.516 µM
- CC50 (OVCAR-8; read-out: LC-50, PG=-50): 31.8 µM
- effect against CNS cancer cell lines (CNS cancer cell lines): particularly effective against CNS cancer cell lines

— US5441941A, “1,2-dihydroellipticines with activity against CNS specific cancer” (The United States of America as represented by the …, priority 1993, dated 1995)
